“Also recorded” adds a separate entry of the source.
Experiments:
PLTP promoter = assay: PLTP-promoter luciferase reporter in HepG2 and transgenic HepG2/PLTPpLuc cells; type: cell-based, human; conditions: luciferase reporter, HepG2 or HepG2/PLTPpLuc cells
Excerpt: FIG. 2A. A 1.5 Kb PLTP promoter fused to a luciferase reporter was transactivated by topotecan dose-dependently.
FIG. 2B. Activation of PLTP promoter by topotecan in HepG2 transgenic cells containing the PLTP-promoter luciferase reporter gene fused to the neomycin selectable marker cassette and stably transfected into HepG2 cells to generate the transgenic line (Top panel). Dose-dependent induction of PLTP promoter by topotecan (Bottom panel). Results are the means S.E. of three experiments after normalization with Renilla luciferase.
FIG. 3A. Dose-dependent transactivation of the PLTP promoter by prieurianin in the HepG2 transgenic cells. Results are the means S.E. of three experiments after normalization with Renilla luciferase.
FIG. 3B. […] 1, Control; 2. […] Results are the means±S.E. of triplicate experiments.
FIG. 11. Transactivation of PLTP promoter by cytotoxic and non-cytotoxic drugs. Survey of transactivation of the PLTP promoter by various cytotoxic and non-cytotoxic drugs in the HepG2 transgenic cells was conducted. Results are the means S.E. of three experiments.
FIG. 12. Effects of trichostatin A (TSA) on transactivation of PLTP promoter by prieurianin. Dose response activation of PLTP promoter by prieurianin either in the presence or the absence of 200 nM TSA. Results are the means S.E. of three experiments.
To determine whether non-cytotoxic small molecules could induce PLTP expression, the inventor herein subcloned the PLTP-promoter luciferase reporter into a vector containing a neomycin (G418)-resistance selectable marker and generated a transgenic HepG2 cell line, which harbors the PLTP-promoter luciferase reporter, by stable gene transfection and selection with G418.
The transgenic cells were then screened with a library of small molecules derived from natural products.

PLTP [1] = assay: Serum PLTP protein by Western blot in normal C57BL/6J mice; type: in vivo; conditions: normal C57BL/6J mice, 0, 2, 5 and 10 mg/kg
Description: (§1) FIG. 10. Release of adiponectin and PLTP by preadipocytes and adipocytes, and in serum of normal mice. Preadipocytes (B and D) were treated with 2 μM of prieurianin and media collected after 36 hrs for Western blot analysis of either adiponectin (A and B) or PLTP (C and D). Alternatively, five days following differentiation, conditioned media of adipocyets (A and C) were collected for Western analysis. E. Serum of normal C57BL/6J mice given prieurianin or topotecan (0, 2, 5, and 10 mg/kg) was analyzed by Western blot for PLTP.

[2] = type: in vivo, mice
Description: FIG. 15B. Genetically diabetic Ceacam^−/− knockout mice were fed high fat diet for fattening for 4 weeks followed by daily prieurianin treatment (3 or 5 mg/kg) for 21 days. Vehicle treated db/db and Ceacam^−/− mice were given equivolume of Captisol. Results are the means S.E. of 10 animals per group.
The effects of prieurianin were tested in three additional mouse models of obesity including the genetically hyperinsulinemic leptin-receptor deficient db/db, the Ceacam−/− glucose intolerant/diabetic, and the diet-induced obese mice. Prieurianin was administered intraperitoneally (i.p.) to 12-14 week-old db/db mice daily (3 or 5 mg/kg) for 30 days. The diet-induced obese Ceacam−/− diabetic mice were fed a high fat diet for 4 weeks for fattening, followed by prieurianin treatment (3 or 5 mg/kg) for 3 weeks. Vehicle treated controls received equivolume injections of Captisol (CyDex Inc., Lenexa, Kans.). Body weight and food intake were measured every three days, and blood samples were collected at the end of the experiment.

NIH-3T3/L1 preadipocytes = assay: Differentiation of NIH-3T3/L1 preadipocytes into adipocytes (oil red O or Nile Red staining); type: cell-based
Description: FIG. 7. […] NIH-3T3/L1 cells were induced into differentiation and simultaneously treated with 2 μM of prieurianin. Differentiated cells were stained with oil red O—FIG. 7A, undifferentiated control.
Histogram represents A510 nm absorbance of oil red O stain isopropanol extracts from cells. Results are means±S.E. of triplicate experiments.
FIG. 19. Effects of bufalin on preadipocyte differentiation, and dedifferentiation/delipidation in adipo-cytes. NIH-3T3/L1 cells were induced into differentiation and simultaneously treated with either 1 μM of bufalin or 2 μM of prieurianin. Differentiated cells were stained with Nile Red. Alternatively, preadipocytes were induced into differentiation and five days following differentiation, cells were treated with either 1 μM of bufalin or 2 μM of prieurianin for an additional five days and followed by staining with Nile Red. Stained cells were evaluated by fluorescence microscopy.
To determine the effects of prieurianin on the differentiation of preadipocytes to adipocytes, the NIH-3T3/L1 preadipocytes were treated with or without the drug at the same time when induction of differentiation was initiated.

adiponectin = assay: Adiponectin release into conditioned media (Western blot); type: cell-based
Description: as §1
Adipose tissue contains various types of cells including preadipocytes and adipocytes. Also, preadipocytes secrete factors involved in their own differentiation. Once differentiated, the mature adipocytes acquire the ability to communicate distally with other organs including brain, liver, and skeletal muscle and locally with other cells such as preadipocytes, endothelial cells and monocytes/macrophages by secreting leptin and adiponectin. In addition, anti-adipogenic cytokines prevent the release of adiponectin by preadipocytes. Thus, the production of adiponectin and PLTP by preadipocytes and adipocytes was assessed.

PLTP [3] = assay: PLTP release into conditioned media (Western blot); type: cell-based
Description: as §1
The expression and secretion of PLTP by preadipocytes and adipocytes was also assessed. Thus, preadipocytes produced and released both the low and the high molecular weight forms of PLTP, while adipocytes secreted only the low molecular weight form (see FIGS. 10C and 10D) into the conditioned media.

NFκB = assay: NFκB-response element luciferase reporter in L1 preadipocytes; type: cell-based; conditions: prieurianin 2 μM
C/EBPα = C/EBPα response element luciferase reporter in L1 preadipocytes; type: cell-based; conditions: prieurianin 2 μM
Description: (§2) FIG. 18. Effects of prieurianin on C/EBPα and β and PPARγ mediated transcription in adipogenesis. Response elements corresponding to C/EBPα and β and PPARγ are cloned into the pGL3 basic luciferase reporter plasmid. L1 preadipocytes were contransfected with the reporter plasmid either in the presence or the absence of the corresponding transcription factors cloned into expression vector, followed by treatment with 2 μM of prieurianin. Cells were harvested for luciferase assay 15-24 hrs later. Results are means±S.E. of triplicate experiments.

C/EBPβ = C/EBPβ response element luciferase reporter in L1 preadipocytes; type: cell-based; conditions: prieurianin 2 μM
Description: as §2

PPARγ = PPARγ response element luciferase reporter in L1 preadipocytes; type: cell-based; conditions: prieurianin 2 μM
Description: as §2

[4] = Cytotoxicity in cell culture studies; type: cell-based; conditions: data not shown
[5] = test system: 20-hydroxyecdysone activity; conditions: drosophila cells in culture; cited from earlier work

C=C1[C@@H]([C@@]2(C)[C@@H](OC(C)=O)CC(=O)O[C@](C)(COC(C)=O)[C@@H]2C(=O)OC)[C@@H](OC=O)[C@H](OC(=O)[C@H](O)[C@H](C)CC)[C@@]2(C)[C@H](c3ccoc3)CC(=O)[C@]12O [prieurianin]
transactivation of PLTP promoter (PLTP promoter): exhibited the strongest transactivation of the PLTP promoter, and showed induction of PLTP in a dose-dependent manner
serum PLTP protein levels (PLTP [1]): a rise in the serum PLTP protein levels
body weight relative to pre-fattening ([2]; 3 mg/kg treated group): Body weight returned to pre-fattening level
toxicity ([2]; Ceacam−/− mice given 5 mg/kg): euthanized after 14 days of treatment due to severe weight loss and unknown toxicity
subcutaneous or visceral fats in postmortem analysis ([2]; Ceacam−/− mice given 5 mg/kg, relative to controls): Little subcutaneous or visceral fats were observed
body weight loss ([2]; diet-induced obese Ceacam−/− mice, 3 or 5 mg/kg): 20-26%
reduced food intake ([2]; diet-induced obese Ceacam−/− mice, compared to controls): > 50%
preadipocytes differentiation (NIH-3T3/L1 preadipocytes; 2 μM, in the absence of staurosporine): almost completely inhibited preadipocytes differentiation
differentiation of preadipocytes into lipid accumulating adipocytes (NIH-3T3/L1 preadipocytes; treated at induction of differentiation, oil red O): dose-dependently prevented the differentiation of preadipocytes
adiponectin release by preadipocytes (adiponectin; NIH-3T3/L1 preadipocytes, approximately 36 hrs after treatment): inhibition of adiponectin release
adiponectin production and release in differentiated adipocytes (adiponectin; differentiated adipocytes): induced the production and release of high molecular weight form, as well as a modest increase in the secretion of total adiponectin
release of PLTP by adipocytes (PLTP [3]; adipocytes): induced an increase in the release of only the low molecular weight form of PLTP
release of PLTP by preadipocytes (PLTP [3]; preadipocytes): release of the low but not the high molecular form of PLTP was reduced
NFκB-response element mediated transcription (NFκB): induces transactivation from the NFκB-response element mediated transcription
transactivation potential of C/EBPα (C/EBPα): inhibits the transactivation potential
transactivation potential of C/EBPβ (C/EBPβ): inhibits the transactivation potential
transactivation potential of PPARγ (PPARγ): inhibits the transactivation potential
cytotoxicity [4]: relatively non-cytotoxic compared with topotecan; also recorded: relatively non-cytotoxic compared to topotecan
antagonism against 20-hydroxyecdysone activity [5]: antagonism against 20-hydroxyecdysone activity
